Results published in patent US5103013A, “Dithioketene derivatives, pharmaceutical compositions containing the same and uses thereof” (Yuhan Corporation, Ltd., priority 1988, dated 1992).

Key:
[1] = test system: serum alanine aminotransferase (ALT) increase induced by CCl4; assay: Protective effect against acute hepatic damage induced by carbon tetrachloride (suppression of serum ALT increase); format: in vivo; conditions: Mus musculus; mice, oral 50 mg/kg in 0.2% CMC-Na, 6 h before oral CCl4 (50 ul/kg); serum ALT 24 h after CCl4; read-out: Inhibitory (%) (protective effect of test compound against increase of serum ALT activity induced by CCl4)
Experimental: Carbon tetrachloride (CCl4) is a well-known hepatotoxic agent, thus widely used to produce experimental animal models for screening the potential drugs acting upon hepatic diseases. In this experiment test compounds were administered to mice prior to treatment with CCl4. 24 Hours after the CCl4 treatment, the animals were sacrificed and serum alanine aminotransferase (ALT) levels were determined. The hepatoprotective effect of a test compound was evaluated by the suppressive action against the increase of serum ALT induced by CCl4.
The experimental animals were divided into the normal, the CCl4 treated and the test compound treated groups. Each group consisted of 8 mice with body weight of 20-25 grams. The test compounds were suspended in 0.2% sodium carboxymethylcellulose (CMC--Na) solution and administered orally at the dose of 50 mg/125 ml/kg body weight. Only the vehicle 0.2% CMC--Na solution, was administered to the normal and to the CCl4 treated group instead of the test compound suspension.
6 Hours after the drug administration, the CCl4 solution in olive oil was administered orally to the CCl4 treated-group and the test compound treated group at the dose of 50 ul/25 ml olive oil/kg body weight. The normal group was administered with olive oil only at the same dose. 24 Hours after the CCl4 administration, blood samples were collected from the orbital sinus of the animals and the sera were monitored using an automatic blood analyzer (Gilford, SBA 300). The hepatoprotective effect of the test compounds was expressed by the suppressive percentage against the increase of serum ALT level induced by CCl4 calculated by the following formula; [formula]

[2] = test system: serum ALT increase induced by CCl4; assay: Determination of 50% effective dose (ED50) against CCl4-induced serum ALT increase; format: in vivo; conditions: Mus musculus; mice, oral 50, 25, 12.5 or 6.25 mg/kg, 6 h before CCl4; serum ALT 24 h after CCl4; estimated from dose-response curves; read-out: ED50 (50% effective dose of test compound)
Experimental: The various doses of test compounds were administered to mice, followed by the treatment with CCl4 after 6 hours. 24 Hours after the CCl4 treatment, the serum ALT level of the animals were determined. The hepatoprotective effect of the test compounds and the doses were plotted to form doseresponse curves, from which the ED50 doses of the test compounds were estimated.
The experimental animals were divided into the normal, the CCl4 treated and the test compound treated groups. Each group consisted of 8 mice with body weight of 20-25 grams. The test compounds were suspended in 0.2% CMC--Na solution and administered orally at a dose of 50 mg, 25 mg, 12.5 mg or 6.25 mg/125 ml/kg body weight. Only the vehicle, 0.2% CMC--Na solution, was administered to the normal and to the CCl4 treated group instead of the test compound suspension. 6 Hours later, the CCl4 solution in olive oil was administered orally to the CCl4 treated and the test compound treated groups at the dose of 50 ul/25 ml oilve oil/kg body weight. The norm group was administered olive oil only at the same dose. 24 Hours after the CCl4 administration, blood samples were collected from the orbital sinuses of the animals and the sera were obtained by centrifugation. The serum ALT activities were monitored and the hepatoprotective effect of the test compounds were calculated by the same method as described in experiment 1. The percentages were plotted against the corresponding doses of the test compounds to make dose-response curves, from which the 50% effective dose of test compound was estimated.

[3] = Acute toxicity of test compounds (oral LD50); conditions: mouse, in vivo, male ICR mice, 0.2% CMC-Na suspension, dead mice counted for 14 days, read-out: LD50 of Test Compound (column head prints ED50)
Experimental: Each test compound was suspended in 0.2% CMC--Na solution in various concentrations to make test suspensions. The test suspensions were administered orally to male ICR mice (10 in each group) at various doses. The number of dead mice was counted for 14 days and the value of median lethal dose (LD50, g/kg) was calculated by the Hitchifield-Wilcoxon method.

SMILES | inhibition in vivo at 50 mg/kg [1] | ED50 [2] | LD50 at 336 h [3]
CC(C)OC(=O)C(C(=O)Nc1nncs1)=C1SCS1 [Example 28, Isopropyl 2-(1,3-dithietan-2-ylidene)-2-[N-(1,3,4-thiadiazol-2-yl)carbamoyl]acetate] | 100% | < 6.25 mg/kg | > 5000 mg/kg
CC(C)OC(=O)C(C(N)=O)=C1SCS1 [Example 13, Isopropyl 2-(1,3-dithietan-2-ylidene)-2-carbamoylacetate] | 28% | > 50 mg/kg | < 5000 mg/kg
Cc1csc(NC(=O)C(C(=O)OC(C)C)=C2SCS2)n1 [Example 24, Isopropyl 2-(1,3-dithietan-2-ylidene)-2-[N-(4-methyl-2-thiazolyl)carbamoyl]acetate] | 100% | < 6.25 mg/kg | > 5000 mg/kg
CC(C)OC(=O)C(C(=O)Nc1nccs1)=C1SCS1 [Example 22, Isopropyl 2-(1,3-dithietan-2-ylidene)-2-[N-(2-thiazolyl)carbamoyl]acetate] | 100% | < 6.25 mg/kg | > 5000 mg/kg
CC(C)OC(=O)C(C(=O)Nc1ccccn1)=C1SCS1 [Example 29, Isopropyl 2-(1,3-dithietan-2-ylidene)-2-[N-(2-pyridyl)carbamoyl]acetate] | 100% | 10 mg/kg | > 5000 mg/kg
CC(C)OC(=O)C(C(=O)Nc1ccc(C(F)(F)F)cc1)=C1SCCS1 [Example 21, Isopropyl 2-(1,3-dithiolan-2-ylidene)-2-[N-(4-trifluoromethylphenyl)carbamoyl]acetate] | 98% | < 50 mg/kg | 
CC(C)OC(=O)C(C(=O)Nc1nc(-c2ccccc2)cs1)=C1SCS1 [Example 27, Isopropyl 2-(1,3-dithietan-2-ylidene)-2-[N-(4-phenyl-2-thiazolyl)carbamoyl]acetate] | 11% | > 50 mg/kg | 
CC(C)OC(=O)C(C(=O)NCc1ccccc1)=C1SCS1 [Example 15, Isopropyl 2-(1,3-dithietan-2-ylidene)-2-(N-benzylcarbamoyl)acetate] | 97% | 10 mg/kg | 
CC(C)OC(=O)C(C(=O)Nc1ccc(C(F)(F)F)cc1)=C1SCS1 [Example 19, Isopropyl 2-(1,3-dithietan-2-ylidene)-2-[N-(4-trifluoromethylphenyl)carbamoyl]acetate] | 100% | 6.25 mg/kg | 
CC(C)OC(=O)C(C(=O)Nc1ccccn1)=C1SCCS1 [Example 32, Isopropyl 2-(1,3-dithiolan-2-ylidene)-2-[N-(2-pyridyl)carbamoyl]acetate] | 85% | < 50 mg/kg | 
Cc1csc(NC(=O)C(C(=O)OC(C)C)=C2SCCS2)n1 [Example 26, Isopropyl 2-(1,3-dithiolan-2-ylidene)-2-[N-(4-methyl-2-thiazolyl)carbamoyl]acetate] | 98% | < 50 mg/kg | 
CC(C)OC(=O)C(C(=O)Nc1ccccc1)=C1SCS1 [Example 18, Isopropyl 2-(1,3-dithietan-2-ylidene)-2-(N-phenylcarbamoyl)acetate] | 100% | 7 mg/kg | 
